“Also recorded” adds a separate entry of the source.
How the values were obtained:
[1] = Elimination half-life of circulating metabolite M1 in humans in vivo; design: species or system human
[2] = Pharmacokinetics of single-dose pimavanserin alone and in the presence of multiple-dose ketoconazole (strong CYP3A inhibitor) in healthy subjects; conditions: for exposure to metabolite, mean AUC ratio AUC(metabolite)/AUC(parent): after a single dose of pimavanserin; for metabolite plasma concentrations with ketoconazole co-administration: metabolite in plasma after pimavanserin tartrate 40 mg with ketoconazole 400 mg daily; for metabolite plasma levels after pimavanserin: metabolite in plasma after single dose pimavanserin tartrate 40 mg, 19 subjects
Method: (§2) 20 subjects (14 males and 6 females) were enrolled in this study. These subjects were healthy male or female subjects between the ages of 18 and 55 years, and with a body mass index (BMI) between 18 and 30 kg/m^2. Among the 20 subjects, 10 subjects (50%) were black, 9 subjects (45%) were white and 1 subject (5%) was American Indian/Alaska native.
(§3) On Day 1, subjects received a single oral dose of pimavanserin tartrate 40 mg (2×20 mg tablets) under fasting conditions. On Day 15, subjects began taking ketoconazole 400 mg (2×200 mg tablets) orally once daily for 14 days. A single oral dose of pimavanserin tartrate 40 mg was administered under fasting conditions 60 minutes after the fifth ketoconazole dose (on Day 19). Both single doses of pimavanserin tartrate were administered on an empty stomach, following an overnight fast of approximately 10 hours prior to dosing. Subjects continued to fast for 4 hours after administration of pimavanserin tartrate.
(§4) Samples for pimavanserin pharmacokinetic (PK) analysis were collected prior to each pimavanserin dose and at scheduled time points up to 14 days post-dose. More specifically, blood samples for the determination of plasma pimavanserin and four of its metabolites were collected at the following time points in relation to pimavanserin dosing on Day 1 and Day 19: pre-dose (within 30 minutes of dosing), 1, 2, 4, 6, 9, 12, 16, 24, 36, 48, 72, 96, 144, 192, 264, and 336 hours post-dose. The pharmacokinetics of pimavanserin and four metabolites, M1 (N-desmethyl-pimavanserin), M2 (O-desalkyl-pimavanserin), M3 ([ω-1]-hydroxy-pimavanserin), and M4 (ω-hydroxy-pimavanserin), by treatment consisting of pimavanserin alone and pimavanserin with ketoconazole, were assessed using noncompartmental analysis.
(§5) The following parameters were determined for pimavanserin, M1, M2 and M3 (the analytes for which there was a sufficient number of quantifiable post-dose concentrations): the area under the concentration-time curve from 0 to the time of the last measurable concentration (AUC0-t); the area from 0 to infinity (AUC0-inf); the percent of the extrapolated portion of the AUC0-inf (% AUCext); the maximum observed plasma concentration (Cmax); time of maximum plasma concentration (Tmax); apparent first-order terminal elimination rate constant (kel), and apparent first-order terminal elimination half-life (t1/2). Additional PK parameters computed for pimavanserin were oral clearance (CL/F), and apparent volume of distribution (Vz/F). Where feasible, as in the case of pimavanserin, M1, M2 and M3, parent ratios, which were computed as AUC(metabolite)/AUC(parent) ratios based on both AUC0-t and AUC0-inf were also determined.
(§6) A two-sided paired t-test was performed on the natural log-transformed pimavanserin AUC0-t, AUC0-inf, and Cmax at the alpha level of 0.05. The geometric ratio of treatment means (pimavanserin with ketoconazole/pimavanserin alone) and 90% geometric confidence intervals for the ratio of means were calculated for AUC0-t, AUC0-inf, and Cmax.

[3] = Safety and tolerability of single-dose pimavanserin alone and in the presence of ketoconazole in healthy subjects; type: in vivo, human; conditions: for treatment-related TEAEs considered related to the substance, number (% of the 16 treatment-related TEAEs): 20 healthy subjects, pimavanserin tartrate 40 mg single doses, ketoconazole 400 mg daily for 14 days; for safety and tolerability: healthy adult subjects
Method: The subject who was discontinued was not replaced.
Safety data (including adverse events (AEs)), laboratory tests, vital sign measurements, electrocardiograms (ECGs), and physical examination (PE) were reviewed throughout the study for the purpose of safety monitoring. Clinical laboratory assessments were obtained on Day −1, Day 18, and the end of study visit. Vital signs were performed at each study visit, except on Day −1. A 12-lead ECG was performed on Day −1, Day 1, Day 19 and the end of study visit. Other safety measures included physical examination on Days −1, 3, 23, and the end of study visit and any other measures deemed necessary.
All available safety data from subjects receiving at least one dose of study medication were included in the safety analyses. The frequency of AEs was tabulated. Pre-treatment, within study, and end of study, and change from pre-treatment laboratory, vital signs, and ECG parameters were summarized. Shift tables were prepared for laboratory parameters.

[4] = target: T1, CYP3A4 (Homo sapiens, UniProt P08684); assay: Effect of pimavanserin on the pharmacokinetics of midazolam, in vivo probe drug for CYP3A4; conditions: 34 mg pimavanserin for up to 38 days, humans
T1 construct: from tissue; host or cells: human subjects in vivo (endogenous hepatic/intestinal enzyme)
T1 sequence (P08684 whole entry): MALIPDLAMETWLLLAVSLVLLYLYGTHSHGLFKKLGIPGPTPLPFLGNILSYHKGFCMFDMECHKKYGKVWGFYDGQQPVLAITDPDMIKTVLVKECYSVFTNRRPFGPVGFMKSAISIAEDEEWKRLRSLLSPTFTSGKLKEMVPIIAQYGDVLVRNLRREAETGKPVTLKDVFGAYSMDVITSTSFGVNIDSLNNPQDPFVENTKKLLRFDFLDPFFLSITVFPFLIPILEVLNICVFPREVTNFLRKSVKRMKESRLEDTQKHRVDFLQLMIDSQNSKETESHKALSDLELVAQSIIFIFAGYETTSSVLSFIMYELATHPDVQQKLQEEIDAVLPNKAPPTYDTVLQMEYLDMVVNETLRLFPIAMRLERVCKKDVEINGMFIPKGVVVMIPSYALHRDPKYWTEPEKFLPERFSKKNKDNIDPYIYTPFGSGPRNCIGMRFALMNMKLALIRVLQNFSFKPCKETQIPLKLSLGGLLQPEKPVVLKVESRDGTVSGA
Method: In this study, the pharmacokinetics of midazolam, a sensitive in vivo probe drug for CYP3A4 and an accepted probe drug for CYP3A4, were evaluated in the presence of pimavanserin in humans. […] No dose adjustment is therefore required for other CYP3A4 substrates when coadministered with pimavanserin.

[5] = target: cytochrome P450 (CYP) 3A4 (Homo sapiens, UniProt P08684); assay: In vitro studies of the enzymes forming the primary metabolites of pimavanserin; type: in vitro ADME
Chain of cytochrome P450 (CYP) 3A4 (P08684 whole entry): as above
Method: (§1) A major metabolite formed in vitro by human liver microsomes, M1 (N-desmethyl-pimavanserin), was identified as a significant circulating metabolite in humans in vivo.
An in vitro study was performed to analyze the role of a CYP3A4 inhibitor in pimavanserin metabolism.

[6] = target: T2, CYP2J2 (Homo sapiens, UniProt P51589); assay: as above; type: in vitro ADME
T2 sequence (P51589 1-502): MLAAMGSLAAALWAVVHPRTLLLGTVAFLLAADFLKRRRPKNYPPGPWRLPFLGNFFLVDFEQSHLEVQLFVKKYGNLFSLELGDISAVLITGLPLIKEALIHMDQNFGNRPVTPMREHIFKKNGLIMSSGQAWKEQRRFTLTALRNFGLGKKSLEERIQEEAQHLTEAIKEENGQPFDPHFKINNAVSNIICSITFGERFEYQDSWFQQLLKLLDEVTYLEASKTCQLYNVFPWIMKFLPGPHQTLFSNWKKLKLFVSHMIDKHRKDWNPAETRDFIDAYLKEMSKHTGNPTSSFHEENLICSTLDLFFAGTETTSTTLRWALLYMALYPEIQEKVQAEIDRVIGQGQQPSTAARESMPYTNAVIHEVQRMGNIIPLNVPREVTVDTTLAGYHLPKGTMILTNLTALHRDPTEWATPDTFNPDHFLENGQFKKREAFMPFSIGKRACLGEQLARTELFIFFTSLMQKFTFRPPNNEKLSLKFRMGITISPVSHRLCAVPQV
Description: as §1

[7] = both, human, in vivo
Method: as §2, §3, §4, §5, §6

[8] = clinical; conditions: both, human, in vivo, po, 40 mg
Method: as §2, §3, §4, §5, §6

CC(C)COc1ccc(CNC(=O)N(Cc2ccc(F)cc2)C2CCNCC2)cc1 [M1, N-desmethyl-pimavanserin]
elimination half-life [1]: about 65 hours | exposure to metabolite, mean AUC ratio AUC(metabolite)/AUC(parent) [2]: 1.47 | net increase in mean AUC0-t of metabolite with ketoconazole co-administration relative to pimavanserin alone ([2]; metabolite in plasma after pimavanserin tartrate 40 mg, ketoconazole 400 mg daily): 26%

CN1CCC(N(Cc2ccc(F)cc2)C(=O)NCc2ccc(O)cc2)CC1 [M2, O-desalkyl-pimavanserin]
exposure to metabolite, mean AUC ratio AUC(metabolite)/AUC(parent) [2]: 0.0365 | metabolite plasma concentrations with ketoconazole co-administration [2]: decreased plasma concentrations; also recorded: reduced

CN1CCC(N(Cc2ccc(F)cc2)C(=O)NCc2ccc(OCC(C)(C)O)cc2)CC1 [M3, [ω-1]-hydroxy-pimavanserin]
metabolite plasma concentrations with ketoconazole co-administration [2]: not detectable in any subjects; also recorded: reduced | metabolite plasma levels after pimavanserin [2]: Only 5 of the 19 subjects had a few measurable plasma levels; also recorded: Low levels

CC(CO)COc1ccc(CNC(=O)N(Cc2ccc(F)cc2)C2CCN(C)CC2)cc1 (stereo not shown) [M4, ω-hydroxy-pimavanserin]
metabolite plasma levels after pimavanserin [2]: undetectable; also recorded: no detectable concentrations

CC(C)COc1ccc(CNC(=O)N(Cc2ccc(F)cc2)C2CCN(C)CC2)cc1 [Pimavanserin, N-(1-methylpiperidin-4-yl)-N-(4-fluorophenylmethyl)-N′-(4-(2-methylpropyloxy)phenylmethyl)carbamide]
treatment-related TEAEs considered related to the substance, number (% of the 16 treatment-related TEAEs) [3]: 8 (50%) | changes in mean clinical laboratory, vital signs, 12-lead ECG or physical examination findings ([3]; following pimavanserin alone or pimavanserin with ketoconazole): No trends or clinically relevant changes | safety and tolerability ([3]; pimavanserin administered alone): safe and generally well tolerated | safety and tolerability ([3]; pimavanserin administered with ketoconazole): safe and generally well tolerated | deaths or serious adverse events during the study ([3]; pimavanserin alone and with ketoconazole, 20 subjects): No deaths or serious adverse events | effect on midazolam exposure (induction or inhibition of CYP3A4) [4]: no immediate or delayed effect | role of enzyme in formation of the primary metabolites [5]: formed predominantly by the cytochrome P450 (CYP) 3A4 enzymes | role of enzyme in formation of the primary metabolites [6]: minor role | ratio of the geometric means, pimavanserin AUC0-inf [7]: approximately 3 | ratio of the geometric means, pimavanserin AUC0-t [7]: approximately 3 | AUC(0-inf) [8]: 1260 ± 464 ng·h/mL | AUC(0-t) [8]: 1220 ± 433 ng·h/mL | Cmax [8]: 17.1 ± 3.8 ng/mL

CC(=O)N1CCN(c2ccc(OCC3COC(Cn4ccnc4)(c4ccc(Cl)cc4Cl)O3)cc2)CC1 (stereo not shown) [ketoconazole, reference compound]
treatment-related TEAEs considered related to the substance, number (% of the 16 treatment-related TEAEs) [3]: 12 (75%)

Reference: patent publication US11191757B2, “Combination of pimavanserin and cytochrome P450 modulators” (ACADIA Pharmaceuticals Inc., priority 2016, dated 2021)
